The conditions of series [1]: Liquid; for mass density: 293.15 K, 101.33 kPa, Vibrating tube method; for Normal boiling temperature: Closed cell (Static) method.
Series [2] is described as follows: refractive index (Na D-line) (dimensionless). The following applies: 298.15 K; 101.33 kPa; Liquid; Standard Abbe refractometry.

± gives the expanded uncertainty stated by the source.

What is called mass density is the mass of a sample divided by its volume. As usually defined, the refractive index is the speed of light in vacuum divided by its phase velocity in the sample. Turning to `CC(=O)O` [acetic acid], in series [1], the mass density was determined as 1044.3 ± 0.96 kg/m3 and the Normal boiling temperature was determined as 117.1 ± 1.1 °C. The refractive index in series [2] is 1.37104 ± 0.00052.
On to `CCCCCCC(=O)OCC` [ethyl heptanoate], for which, in series [1], the mass density is recorded as 881.3 ± 0.74 kg/m3 and the Normal boiling temperature worked out at 187.2 ± 1.1 °C. Moreover, the refractive index in series [2] stood at 1.41123 ± 0.00052.
`O=CO` [formic acid]: in series [1], the mass density was found to be 1218.5 ± 1.4 kg/m3 and the Normal boiling temperature was determined as 101.1 ± 1.1 °C. In addition, the refractive index in series [2] was found to be 1.3721 ± 0.00052.
Taken in the same sequence, the figures for `O` [water] were 999.9 ± 0.24 kg/m3, 100.1 ± 1 °C and 1.33244 ± 0.00033.
